Experimental data from patent US20120225909A1, “INDAZOLE ANALOG” (priority 2009, published 2012).
Read-outs that look alike come from different tables or passages of the source.

How the values were obtained:
Type in all cases: cell-based
[1] = molecular target: T1, human α1A-adrenergic receptor (Homo sapiens, UniProt P35348); test: Test Case 4-B: human α1A-adrenergic receptor agonist activity (Cerep cellular functional GPCR, alpha 1A); set-up: expressed in transfected cells; conditions: concentration 10 μM; for α1 receptor % of Control Agonist Response, Control; Epinephrine: epinephrine = 100%
T1 sequence (P35348 1-466): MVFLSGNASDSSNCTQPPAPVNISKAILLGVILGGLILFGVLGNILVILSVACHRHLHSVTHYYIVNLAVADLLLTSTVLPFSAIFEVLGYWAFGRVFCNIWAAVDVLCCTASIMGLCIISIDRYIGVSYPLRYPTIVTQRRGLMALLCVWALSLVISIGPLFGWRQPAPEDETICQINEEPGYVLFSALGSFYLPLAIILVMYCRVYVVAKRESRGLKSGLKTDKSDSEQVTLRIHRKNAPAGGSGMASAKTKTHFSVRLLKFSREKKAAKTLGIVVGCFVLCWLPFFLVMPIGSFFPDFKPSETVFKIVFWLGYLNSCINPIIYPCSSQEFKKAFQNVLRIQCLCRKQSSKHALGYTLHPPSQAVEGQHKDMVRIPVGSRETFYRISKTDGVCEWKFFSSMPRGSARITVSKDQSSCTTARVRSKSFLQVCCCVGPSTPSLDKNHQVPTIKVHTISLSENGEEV
Text: (§1) Measurement of Human α1A-Adrenergic Receptor Agonist Activity
The human α1A-adrenergic receptor agonist activity] can be measured by […] Functional GPCR·Gs, alpha 1A (Ref. 722-36a) listed on p. 52 of the Cerep 2008 CATALOG IN VITRO PHARMACOLOGY & ADME-TOX.

[2] = molecular target: T1, human α1A-adrenergic receptor; test: Test Case 4-A: human α1A-adrenergic receptor agonist activity (HEK293, Ca flux, Fura-2); set-up: expressed in transfected cells; host or cells: HEK293 cells, pcDNA3.1
Protocol: as §1
The human α1A-adrenergic receptor agonist activity is measured using HEK293 cells transfected by a human α1A gene inserted in pcDNA3.1 (Invitrogen). […] After loading for 30 minutes in a CO2 incubator, the excess Fura-2AM is removed by washing twice with assay buffer. After preparing the centrifuged cells to make 5×10^6 cells/mL by assay buffer, 80 μL/well is dispensed into 96-well UV plates (made by Corning) to make cell plates. Sample plates with the test compound diluted 10-fold by assay buffer from 10^−5 to 10^−12 M and cell plates are set in an FDSS4000 (made by Hamamatsu Photonics). After preincubating for 180 seconds, measurement of fluorescence intensity (excitation wavelength 340 nm, 380 nm, measurement wavelength 500 nm) is begun at 2-second intervals. After approximately 30 seconds of measurement, 20 μL of test sample from a sample plate is added to the cell plate, and measurement is continued for another 270 seconds. The Ca flux caused by the test compound is calculated taking the difference in the maximum value of the fluorescence intensity ratio at 340 nm and 380 nm after adding the test compound and the fluorescence intensity ratio before adding the test compound as the peak height.

[3] = molecular target: T2, human β3-adrenergic receptor (Homo sapiens, UniProt P13945); test: Test Case 1-B: human β3-adrenergic receptor agonist activity (cAMP-Screen, 96-well)
T2 construct: A full-length human β3 gene is obtained from a human genomic library (made by Clontech) using this as the probe; expressed in transfected cells; host or cells: CHO (Chinese hamster ovary) cells, pcDNA3
Protocol: Measurement of Human β3-Adrenergic Receptor Agonist Activity
The human β3-adrenergic receptor agonist activity is measured using CHO (Chinese hamster ovary) cells transfected by a human β3 gene inserted in pcDNA3 (Invitrogen). […] A full-length human β3 gene is obtained from a human genomic library (made by Clontech) using this as the probe. These cells are cultured in Ham's F-12 medium containing 10% fetal calf serum and 400 μg/mL genectin (Invitrogen). These cells are sown in 96-well plates to make 2×10^4 cells/well. After culturing for approximately 20 hours, they are allowed to stand for 15 minutes in 80 μL of serum-free Ham's F-12 medium. After first dissolving the test compound by DMSO, it is serially diluted by Ham's F-12 containing 100 mmol/L HEPES and 1 mmol/L isobutylmethylxanthine, and 20 μL is added to the cells. After culturing for 30 minutes, the medium is removed, and 0.1 mL of the assay/lysis buffer contained in the cAMP-Screen kit (made by Applied Bioscience) is added and incubated for 30 minutes at 37° C. The cAMP in this cell lysate is assayed by the above cAMP-Screen kit.

[4] = molecular target: T3, human β1-adrenergic receptor (Homo sapiens, UniProt P08588); test: Test Case 2-B: human β1-adrenergic receptor agonist activity; conditions: for Emax: read-out: β1 receptor I.A.; for β1 receptor I.A.: Test Case 2-B, maximum response of isoproterenol = 100%
T3 construct: expressed in transfected cells; host or cells: CHO (Chinese hamster ovary) cells, pcDNA3
Protocol: Measurement of Human β1-Adrenergic Receptor Agonist Activity
The human β1-adrenergic receptor agonist activity is measured by the same method as in Test Case 1-B using CHO (Chinese hamster ovary) cells transfected by a human β1 gene inserted in pcDNA3 (Invitrogen).

[5] = molecular target: T4, human β2-adrenergic receptor (Homo sapiens, UniProt P07550); test: Test Case 3-B: human β2-adrenergic receptor agonist activity; conditions: for Emax: read-out: β2 receptor I.A.; for β2 receptor I.A.: Test Case 3-B, maximum response of isoproterenol = 100%
T4 construct: expressed in transfected cells; host or cells: CHO (Chinese hamster ovary) cells, pcDNA3
Protocol: Measurement of Human β2-Adrenergic Receptor Agonist Activity
The human β2-adrenergic receptor agonist activity is measured by the same method as in Test Case 1-B using CHO (Chinese hamster ovary) cells transfected by a human β2 gene inserted in pcDNA3 (Invitrogen).

[6] = HEK293; read-out: α1A receptor I.A.
[7] = Test Case 4-A; maximum response of norepinephrine = 100%; Table 4
[8] = 0.5 h; read-out: β3 receptor I.A.
[9] = Test Case 1-B; maximum response of isoproterenol = 100%
[10] = Test Case 4-A; HEK293 cells, Ca flux; Table 4

T4 sequence (P07550 whole entry): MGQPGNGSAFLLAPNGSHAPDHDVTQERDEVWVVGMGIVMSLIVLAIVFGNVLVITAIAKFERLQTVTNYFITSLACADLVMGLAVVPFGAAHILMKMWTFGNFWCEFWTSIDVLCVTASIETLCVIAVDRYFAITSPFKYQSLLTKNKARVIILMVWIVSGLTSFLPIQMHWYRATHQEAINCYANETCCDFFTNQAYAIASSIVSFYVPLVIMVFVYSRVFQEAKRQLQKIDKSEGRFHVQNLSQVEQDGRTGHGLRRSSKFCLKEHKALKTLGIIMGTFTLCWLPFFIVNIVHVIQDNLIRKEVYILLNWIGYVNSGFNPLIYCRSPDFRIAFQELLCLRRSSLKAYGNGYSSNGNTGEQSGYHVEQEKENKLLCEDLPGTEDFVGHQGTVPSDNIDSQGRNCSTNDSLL
T2 sequence (P13945 whole entry): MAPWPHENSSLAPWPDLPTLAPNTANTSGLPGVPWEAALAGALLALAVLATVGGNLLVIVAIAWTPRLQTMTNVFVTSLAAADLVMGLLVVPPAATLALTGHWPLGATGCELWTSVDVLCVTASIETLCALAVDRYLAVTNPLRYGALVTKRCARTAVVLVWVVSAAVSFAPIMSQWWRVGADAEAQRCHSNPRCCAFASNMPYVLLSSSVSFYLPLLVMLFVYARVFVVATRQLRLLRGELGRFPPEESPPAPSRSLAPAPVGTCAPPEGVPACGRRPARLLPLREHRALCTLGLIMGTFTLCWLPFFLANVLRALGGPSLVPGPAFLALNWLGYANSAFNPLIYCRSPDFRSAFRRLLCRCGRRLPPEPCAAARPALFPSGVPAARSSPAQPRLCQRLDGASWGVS
T3 sequence (P08588 whole entry): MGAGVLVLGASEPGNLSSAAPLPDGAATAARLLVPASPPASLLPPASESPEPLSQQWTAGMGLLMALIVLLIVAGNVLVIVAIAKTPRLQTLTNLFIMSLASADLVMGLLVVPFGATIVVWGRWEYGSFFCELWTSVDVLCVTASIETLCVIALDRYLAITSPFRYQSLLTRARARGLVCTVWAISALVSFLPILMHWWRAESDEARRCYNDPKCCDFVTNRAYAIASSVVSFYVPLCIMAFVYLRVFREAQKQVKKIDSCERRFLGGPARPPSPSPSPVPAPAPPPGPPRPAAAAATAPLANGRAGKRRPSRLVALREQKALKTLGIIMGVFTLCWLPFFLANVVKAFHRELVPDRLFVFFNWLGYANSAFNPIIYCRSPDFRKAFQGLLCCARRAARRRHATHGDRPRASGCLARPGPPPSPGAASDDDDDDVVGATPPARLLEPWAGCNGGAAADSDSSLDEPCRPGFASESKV

Row | Compound | Emax [2, 6] | Emax [3, 8] | EC50 ([3]; Test Case 1-B; CHO cells, cAMP) | further results
1 | CNC[C@H](O)c1ccc(O)c(O)c1 [Epinephrine, epinephrine, reference compound] | – | – | – | α1 receptor % of Control Agonist Response, Control; Epinephrine [1]: 100%
2 | NC[C@H](O)c1ccc(O)c(O)c1 [Norepinephrine, reference compound] | 100% | – | – | α1 receptor % of Control Agonist Response, Control; Epinephrine [1]: 116%; α1 receptor % of Control Agonist Response, Control; Norepinephrine ([1]; norepinephrine = 100%): 100%; α1A receptor I.A. [2, 7]: 100%
3 | COc1n[nH]c2cc(OCCNC[C@H](O)c3cccc(NS(=O)(=O)c4cccc(N)c4)c3)ccc12 [ex1, (R)-3-amino-N-(3-(1-hydroxy-2-(2-(3-methoxyindazol-6-yloxy)ethylamino)ethyl)phenyl)benzenesulfonamide] | 0% | 110% | 0.52 nM | Emax [4]: 6%; Emax [5]: 1%
4 | COc1n[nH]c2cc(OCCNC[C@H](O)c3cccc(NS(=O)(=O)c4cccnc4)c3)ccc12 [ex12, (R)-N-(3-(1-hydroxy-2-(2-(3-methoxyindazol-6-yloxy)ethylamino)ethyl)phenyl)pyridine-3-sulfonamide] | 0% | 52% | 31 nM | Emax [4]: 5%; Emax [5]: 5%
5 | COc1n[nH]c2cc(OCCNC[C@H](O)c3cccc(NS(=O)(=O)c4cccc(Cl)c4)c3)ccc12 [ex13, (R)-3-chloro-N-(3-(1-hydroxy-2-(2-( ? - methoxyindazol-6-yloxy)ethylamino)ethyl)phenyl) benzenesulfonamide] | 0% | 82% | 9.4 nM | Emax [4]: 4%; Emax [5]: -4%
6 | COc1n[nH]c2cc(OCCNC[C@H](O)c3cccc(NS(=O)(=O)C4CC4)c3)ccc12 [ex17, (R)-N-( ? -(1-hydroxy-2-(2-(3-methoxyindazol-6-yloxy)ethylamino)ethyl)phenyl)cy ?] | 13% | 70% | 39 nM | Emax [4]: 1%; Emax [5]: 12%
7 | COc1n[nH]c2cc(OCCNC[C@H](O)c3cccc(NS(=O)(=O)c4cccc(Cl)c4)c3)ccc12 [ex42, (R)-3-chloro-N-(3-(1-hydroxy-2-(2-(3-methoxyindazol-6-yloxy)ethylamino)ethyl)phenyl) benzenesulfonamide] | – | – | 3.8 nM | β3 receptor I.A. [3, 9]: 83%; β1 receptor I.A. [4]: 4%; β2 receptor I.A. [5]: 0%; α1A receptor I.A. [2, 7]: 0%
8 | COc1cccc(S(=O)(=O)Nc2cccc([C@@H](O)CNCCOc3ccc4c(OC)n[nH]c4c3)c2)c1 [ex43, (R)-N-(3-(1-hydroxy-2-(2-(3-methoxyindazol-6-yloxy)ethylamino)ethyl)phenyl)-3-methoxybenzene-sulfonamide] | – | – | 15 nM | β3 receptor I.A. [3, 9]: 65%; β1 receptor I.A. [4]: −2%; β2 receptor I.A. [5]: −5%; α1A receptor I.A. [2, 7]: 0%
9 | O=S(=O)(Nc1cccc([C@@H](O)CNCCOc2ccc3c(C4CC4)n[nH]c3c2)c1)C1CC1 [ex227, (R)-N-(3-(2-(2-(3-cyclopropylindazol-6-yloxy)ethylamino)-1-hydroxyethyl)phenyl)-cyclopropane-sulfonamide] | – | – | 31 nM | β3 receptor I.A. [3, 9]: 65%; α1A receptor I.A. [2, 7]: 1%
10 | Cc1n[nH]c2cc(OCCNC[C@H](O)c3cccc(NS(=O)(=O)C4CCCC4)c3)ccc12 [ex237, (R)—N-(3-(1-hydroxy-2-(2-(3-methylindazol-6-yloxy)ethylamino)ethyl)phenyl)cyclopentanesulfonamide] | – | – | 293 nM | Emax ([3]; 0.5 h, read-out: β3 receptor I.A.): 58%; Emax ([2]; HEK293, read-out: α1A receptor I.A.): 0%
11 | (R)-N-(3-(1-hydroxy- 2-(2-(3-iso- propylindazol-6-yloxy) ethylamino)ethyl) phenyl)cyclopro- panesulfonamide [ex228] | – | – | 14 nM | β3 receptor I.A. [3, 9]: 47%; α1A receptor I.A. [2, 7]: 0%

Now from value to compound, other results behind:

Row | Emax [2, 6] | Emax [3, 8] | Compound | EC50 ([3]; Test Case 1-B; CHO cells, cAMP) | further results
12 | 61% | 85% | CCc1n[nH]c2cc(OCCNC[C@H](O)c3cccc(NS(=O)(=O)C4CCC4)c3)ccc12 [ex150] | 5.4 nM | EC50 [2, 10]: 1280 nM
13 | 26% | 93% | O=S(=O)(Nc1cccc([C@@H](O)CNCCOc2ccc3c(Cl)n[nH]c3c2)c1)C1CCC1 [ex179, (R)-N-(3-(2-(2-(3-chloroindazol-6-yloxy)ethylamino)-1-hydroxyethyl)phenyl)-cyclobutanesul-fonamide] | 17 nM | EC50 [2, 10]: 436 nM
14 | 1% | 91% | O=S(=O)(Nc1cccc([C@@H](O)CNCCOc2ccc3c(C(F)(F)F)n[nH]c3c2)c1)c1ccccc1F [ex189, (R)-2-fluoro-N-(3-(1-hydroxy-2-(2-(3-(trifluoromethyl)-indazol-6-yloxy)ethylamino)ethyl)phenyl)benzene-sulfonamide] | 85 nM | –
15 | 54% | 86% | O=S(=O)(Nc1cccc([C@@H](O)CNCCOc2ccc3c(C(F)(F)F)n[nH]c3c2)c1)C1CCC1 [ex210, (R)-N-(3-(1-hydroxy-2-(2-(3-(trifluoro-methyl)-indazol-6-yloxy)ethylamino)ethyl)phenyl)cyclo-clobutanesulfonamide] | 17 nM | EC50 [2, 10]: 1700 nM
16 | 41% | 91% | Cn1cc(S(=O)(=O)Nc2cccc([C@@H](O)CNCCOc3ccc4c(C5CC5)n[nH]c4c3)c2)cn1 [ex225, (R)-N-(3-(2-(2-(3-cyclopropylindazol-6-yloxy)ethylamino)-1-hydroxyethyl)phenyl)-1-methyl-pyrazole-4-sul-fonamide] | 5.7 nM | EC50 [2, 10]: 981 nM
17 | 9% | 73% | O=S(=O)(Nc1cccc([C@@H](O)CNCCOc2ccc3c(C4CCC4)n[nH]c3c2)c1)C1CCC1 [ex233, (R)-N-(3-(2-(2-(3- ?] | 10 nM | –
18 | 89% | 72% | O=S(=O)(Nc1cccc([C@@H](O)CNCCOc2ccc3c(CO)n[nH]c3c2)c1)C1CCC1 [ex243, (R)—N-(3-(1-hydroxy-2-(2-(3-(hydroxymethyl)indazole-6-yloxy)ethylamino)ethyl)phenyl)cyclobutanesulfonamide] | 72 nM | EC50 [2, 10]: 44 nM
